Here are results for two compounds from paper PMC11279465, “Dual Inhibitors of P-gp and Carbonic Anhydrase XII (hCA XII) against Tumor Multidrug Resistance with Piperazine Scaffold” (Molecules, 2024).

The test system of data set [1] is HT29/DOX cells. Briefly: Membrane fluidity. The data set is classed as cell-based, human. The following applies: 1 µM. The procedure:
(§1) Membrane fluidity was measured fluorometrically using the Membrane Fluidity Kit, Abcam, according to the manufacturer’s instructions.

Data set [2] concerns A549/DOX cells. As to the kind of experiment: Membrane fluidity. The data set is classed as cell-based, human. The following applies: 1 µM. The protocol: as §1
The subject of a further data set is K562/DOX cells. As to the kind of experiment: Doxorubicin cytotoxicity enhancement assay (MTT). The following applies: 72 h. The class given is cell-based, human. A digest of the protocol: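 K562/DOX cells exposed 72 h to varying doxorubicin concentrations plus 1 or 3 µM test compound. Viability by MTT absorbance, expressed as percentage of untreated control cells.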

Data set [3] concerns HT29/DOX cells. Briefly: TBARS (lipid peroxidation, 4-HNE kit). The data set is classed as cell-based, human. The following applies: 1 µM. The protocol:
(§2) Selected compounds have been tested for their cytotoxic activity at 24 h on HT29/DOX and A549/DOX cells and on the parental HT29 and A549 cells by MTT assay. To evaluate the mechanisms involved in CS, reactive oxygen species (ROS) were measured using the fluorescent probe 5-(and-6)-chloromethyl-2′,7′-dichlorodihydro-fluorescein diacetate-acetoxymethyl ester (DCFDA-AM), as previously reported. The results were expressed as nmol/mg cellular proteins. The amount of TBARS, as an index of lipoperoxidation, was measured with the Lipid Peroxidation (4-HNE) Assay Kit (Abcam, Cambridge, UK) that evaluates the 4-hydroxy-nonenale, one of the TBARS Results were expressed as nmoles/mg mitochondrial protein.

The test system of data set [4] is A549/DOX cells. Briefly: TBARS (lipid peroxidation, 4-HNE kit). The class given is cell-based, human. The following applies: 1 µM. The procedure:
as §2

The target in another data set is T1, hCA II (Homo sapiens, UniProt P00918).
T1 construct: made in house
As to the kind of experiment: CA inhibition, stopped-flow CO2 hydrase assay. The class given is biochemical. The following applies: stopped-flow technique; incubation time 6 h; mean of 3 assays. A digest of the protocol:
(§3)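 Stopped-flow CO2 hydration used saturated CO2 solutions at 25 °C as substrate. Enzyme and inhibitor (10 μM stocks in DMSO-water, diluted down to 0.01 nM) were preincubated for 6 h at room temperature.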

The target of the next data set is T2, hCA XII (Homo sapiens, UniProt O43570).
T2 construct: made in house
T2 sequence (O43570 25-354): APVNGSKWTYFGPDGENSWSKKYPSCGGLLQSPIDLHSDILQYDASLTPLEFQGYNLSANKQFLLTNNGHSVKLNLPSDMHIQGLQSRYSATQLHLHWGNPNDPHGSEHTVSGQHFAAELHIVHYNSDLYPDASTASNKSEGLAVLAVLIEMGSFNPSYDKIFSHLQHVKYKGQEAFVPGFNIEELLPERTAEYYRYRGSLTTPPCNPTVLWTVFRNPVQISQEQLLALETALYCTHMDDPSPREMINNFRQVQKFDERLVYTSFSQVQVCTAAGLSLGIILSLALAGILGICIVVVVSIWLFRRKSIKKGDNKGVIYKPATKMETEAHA
Briefly: CA inhibition, stopped-flow CO2 hydrase assay. The class given is biochemical. The following applies: stopped-flow technique; incubation time 6 h; mean of 3 assays. A digest of the protocol:
as §3

For a further data set, the target named is T3, hCA IX (Homo sapiens, UniProt Q16790).
T3 construct: made in house
Briefly: CA inhibition, stopped-flow CO2 hydrase assay. The class given is biochemical. The following applies: stopped-flow technique; incubation time 6 h; mean of 3 assays. In outline: as §3

A further data set addresses T4, hCA I (Homo sapiens, UniProt P00915).
T4 construct: made in house
As to the kind of experiment: CA inhibition, stopped-flow CO2 hydrase assay. The data set is classed as biochemical. The following applies: stopped-flow technique; incubation time 6 h; mean of 3 assays. In outline:
as §3

The test system of data set [5] is HT29/DOX cells. Briefly: Intrinsic cytotoxicity (MTT). The data set is classed as cell-based, human. The following applies: 48 h; for toxicity: compound alone at 1 µM, HT29/DOX; for more cytotoxic in resistant cells than in parental sensitive cells: compound alone, 1 µM, HT29/DOX vs HT29. A digest of the protocol:
(§4)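 Resistant HT29/DOX and A549/DOX cells exposed for 48 h to compounds from 10 nM to 50 µM; viability measured by MTT. Growth expressed as percentage of untreated control.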

The subject of data set [6] is A549/DOX cells. Briefly: Intrinsic cytotoxicity (MTT). The data set is classed as cell-based, human. The following applies: 48 h; for toxicity: compound alone at 1 µM, A549/DOX; for more cytotoxic in resistant cells than in parental sensitive cells: compound alone, 1 µM, A549/DOX vs A549. In outline: as §4
In data set [7] the test system is HT29/DOX cells. Briefly: ROS measurement (DCFDA-AM). The data set is classed as cell-based, human. The following applies: 1 µM. The protocol:
as §2

The test system of data set [8] is A549/DOX cells. As to the kind of experiment: ROS measurement (DCFDA-AM). The following applies: 1 µM. The data set is classed as cell-based, human. The protocol:
as §2

The target in data set [9] is T5, P-gp (Homo sapiens, UniProt P08183). As to the kind of experiment: P-gp ATPase activity (HT29/DOX cells). The following applies: 1 µM, compared with HT29. More on the design: endogenous in cells; host or cells: HT29/DOX (A27) and A549/DOX (A28). The class given is biochemical. The protocol: (§5) Plasma-membrane vesicles enriched with P-gp were prepared by sequential centrifugation as detailed previously. The ATPase activity of immunopurified P-gp was evaluated spectrophotometrically by measuring the absorbance of the phosphate hydrolyzed from ATP at 620 nm, using a Synergy HT Multi-Detection Microplate Reader (Bio-Tek Instruments). The absorbance was converted into μmol hydrolyzed phosphate/min/mg proteins, according to the titration curve previously prepared.
T5 sequence (P08183 whole entry): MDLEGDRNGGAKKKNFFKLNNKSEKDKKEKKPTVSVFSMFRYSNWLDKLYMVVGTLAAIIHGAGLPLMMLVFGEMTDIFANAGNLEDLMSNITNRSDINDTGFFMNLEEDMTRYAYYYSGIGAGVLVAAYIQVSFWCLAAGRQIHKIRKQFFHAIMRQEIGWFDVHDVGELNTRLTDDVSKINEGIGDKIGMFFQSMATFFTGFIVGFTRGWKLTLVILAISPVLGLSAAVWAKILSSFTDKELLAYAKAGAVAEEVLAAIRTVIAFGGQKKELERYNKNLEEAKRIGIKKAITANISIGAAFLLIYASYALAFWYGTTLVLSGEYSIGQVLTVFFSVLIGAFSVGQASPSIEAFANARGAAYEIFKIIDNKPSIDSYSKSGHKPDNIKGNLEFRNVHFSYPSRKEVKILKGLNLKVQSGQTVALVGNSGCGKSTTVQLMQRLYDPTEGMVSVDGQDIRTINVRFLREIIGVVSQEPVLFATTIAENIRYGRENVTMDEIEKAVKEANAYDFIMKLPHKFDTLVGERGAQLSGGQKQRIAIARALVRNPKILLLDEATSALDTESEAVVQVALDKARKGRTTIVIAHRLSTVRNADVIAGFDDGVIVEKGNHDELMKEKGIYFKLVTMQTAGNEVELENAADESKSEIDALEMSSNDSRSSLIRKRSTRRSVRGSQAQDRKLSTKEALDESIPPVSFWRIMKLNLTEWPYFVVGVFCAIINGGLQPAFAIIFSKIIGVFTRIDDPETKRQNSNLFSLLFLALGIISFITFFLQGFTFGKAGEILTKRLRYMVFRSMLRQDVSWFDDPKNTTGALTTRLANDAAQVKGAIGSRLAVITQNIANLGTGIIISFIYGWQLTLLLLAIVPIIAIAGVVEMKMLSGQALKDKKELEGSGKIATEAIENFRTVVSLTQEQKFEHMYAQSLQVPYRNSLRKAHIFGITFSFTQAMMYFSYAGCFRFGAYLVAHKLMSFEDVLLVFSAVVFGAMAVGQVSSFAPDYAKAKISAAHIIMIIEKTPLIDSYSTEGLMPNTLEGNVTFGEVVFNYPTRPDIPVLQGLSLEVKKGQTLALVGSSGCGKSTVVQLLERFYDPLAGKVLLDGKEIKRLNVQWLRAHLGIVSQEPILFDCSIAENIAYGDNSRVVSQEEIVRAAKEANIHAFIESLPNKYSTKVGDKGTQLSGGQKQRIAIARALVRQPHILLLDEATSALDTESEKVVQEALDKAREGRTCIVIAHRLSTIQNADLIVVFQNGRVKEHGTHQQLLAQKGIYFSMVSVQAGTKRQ

For another data set, the system named is A549 cells. As to the kind of experiment: Intrinsic cytotoxicity (MTT). The data set is classed as cell-based, human. The following applies: compound alone at 1 µM; parental A549; 48 h. The protocol: (§6) All compounds were preliminarily studied to evaluate their intrinsic cytotoxicity at different concentrations (from 10 nM to 50 µM) in the parental HT29 and A549 and the resistant HT29/DOX and A549/DOX cells using the MTT assay.
(§7) The intrinsic toxicity of the studied compounds was determined by an MTT assay. K562 and K562/DOX were exposed for 72 h with compounds at 1 and 3 µM concentrations while HT29, A549, HT29/DOX and A549/DOX cells were incubated for 48 h with compounds used at different concentrations (from 10 nM to 50 µM). The percentage of growth compared to the untreated control was transformed into histograms with the GraphPad Prism 5 program.

The subject of another data set is HT29 cells. As to the kind of experiment: Intrinsic cytotoxicity (MTT). The data set is classed as cell-based, human. The following applies: compound alone at 1 µM; parental HT29; 48 h. The procedure: as §6, §7
Data set [10] deals with T5, P-gp. As to the kind of experiment: P-gp ATPase activity (A549/DOX cells). The class given is biochemical. More on the design: endogenous in cells; host or cells: HT29/DOX (A27) and A549/DOX (A28). The following applies: 1 µM, compared with A549. The protocol:
as §5

Structures are written as SMILES. pKi: −log10 of the molar value.

T4 sequence (P00915 whole entry): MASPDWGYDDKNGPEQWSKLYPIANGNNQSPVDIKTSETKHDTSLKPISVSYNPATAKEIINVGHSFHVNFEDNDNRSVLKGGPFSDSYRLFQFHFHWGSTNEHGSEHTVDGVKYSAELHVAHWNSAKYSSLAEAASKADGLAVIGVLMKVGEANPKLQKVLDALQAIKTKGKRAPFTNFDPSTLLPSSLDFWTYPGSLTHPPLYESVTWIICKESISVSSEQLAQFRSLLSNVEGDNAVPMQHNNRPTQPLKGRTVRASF

Consider `COc1ccc(C(CCCN2CCN(CCCOc3ccc4oc(=O)ccc4c3)CC2)c2ccc(OC)cc2)cc1` [Compound 32, 6-(3-(4-(4,4-Bis(4-methoxyphenyl)butyl)piperazin-1-yl)propoxy)-2H-chromen-2-one], for which the membrane fluidity entry in the data set on HT29/DOX cells [1] and with A549/DOX cells [2] was “increased membrane fluidity” throughout. Further, the “RF (Reversal Fold: IC50 of doxorubicin alone / in presence of modulator)” value in the data set on K562/DOX cells (compound at 1 µM) is listed as 3.6; in the data set with K562/DOX cells (compound at 3 µM), 7.9. The “increase of TBARS levels compared to the control” value in the data set on HT29/DOX cells [3] turned out to be 2.6 times; in the data set on A549/DOX cells [4] it was 4 times. Also, the negative logarithm of the Ki (pKi) – broadly, −log10 of the Ki, conventionally taken in molar units – at hCA II is below 5.00; on hCA XII, 7.15; on hCA IX, 7.05; at hCA I, below 5.00. Besides, the toxicity with HT29/DOX cells [5], in the data set on A549/DOX cells [6], with A549 cells and with HT29 cells was at least 35% in each case. Further, the “more cytotoxic in resistant cells than in parental sensitive cells” value with HT29/DOX cells [5] and in the data set on A549/DOX cells [6] was 15%-20% in each case. Further, the entries for the “increase of ROS levels compared to the control” value in the data set with HT29/DOX cells [7] and in the data set with A549/DOX cells [8] were 3–4 times and 7–8 times, respectively. In addition, the P-gp catalytic activity entry was “lowered the catalytic efficacy of P-gp in resistant cells to levels comparable to drug-sensitive HT29 and A549 cells” on P-gp [9]; “lowered the catalytic efficacy of P-gp in resistant cells to levels comparable to drug-sensitive HT29 and A549 cells” at P-gp [10].

Take `COc1ccc(C(CCCN2CCN(CCCCOc3ccc4ccc(=O)oc4c3)CC2)c2ccc(OC)cc2)cc1` [Compound 27, 7-(4-(4-(4,4-Bis(4-methoxyphenyl)butyl)piperazin-1-yl)butoxy)-2H-chromen-2-one]: the membrane fluidity result in the data set with HT29/DOX cells [1] and with A549/DOX cells [2] was “increased membrane fluidity” throughout. The “RF (Reversal Fold: IC50 of doxorubicin alone / in presence of modulator)” value with K562/DOX cells (compound at 1 µM) was 8.1. The “increase of TBARS levels compared to the control” value in the data set with HT29/DOX cells [3] was 2.6 times; with A549/DOX cells [4], 4 times. In addition, the negative logarithm of the Ki (pKi) on hCA II is below 5.00; at hCA XII, 7.04; at hCA IX, 6.84; on hCA I, below 5.00. Moreover, the toxicity in the data set on HT29/DOX cells [5], in the data set with A549/DOX cells [6], in the data set on A549 cells and in the data set with HT29 cells was at least 35% throughout. Moreover, the “more cytotoxic in resistant cells than in parental sensitive cells” value in the data set with HT29/DOX cells [5] and in the data set with A549/DOX cells [6] was 15%-20% each time. The “increase of ROS levels compared to the control” value is 3–4 times in the data set on HT29/DOX cells [7] and 7–8 times in the data set with A549/DOX cells [8]. Further, the P-gp catalytic activity entry at P-gp [9] was “lowered the catalytic efficacy of P-gp in resistant cells to levels comparable to drug-sensitive HT29 and A549 cells”; at P-gp [10] it was “lowered the catalytic efficacy of P-gp in resistant cells to levels comparable to drug-sensitive HT29 and A549 cells”.
